Source: US4952408A, “Liposome-encapsulated vinca alkaloids and their use in combatting tumors” (priority 1988, dated 1990)
Converted amounts (≈) assume the structure as drawn. Read-outs that look alike come from different tables or passages of the source.

Experiments:
L1210 Leukemia cells = test: in vitro cytotoxicity against L1210 leukemia cells (trypan blue exclusion); assay type: cell-based; settings: Mus musculus; L1210 murine leukemia cells; 24 h treatment at 37° C., counted at 48 and 72 hours
Description: L1210 Leukemia cells were grown in suspension in air with 5% CO2 in RPMI Medium 1640 supplemented with 10% fetal calf serum and gentamicin (50 μg/ml). Log phase cells (10 ml) at an innoculum of 1×10^5 cells/ml of medium in 25 cm^2 plastic flasks were treated with either free vincristine or liposomal entrapped vincristine at different doses for 24 hours at 37° C. After drug treatment, cells were transferred to Falcon tubes and centrifuged for 10 minutes at 600 rpm. The supernatant media were discarded and the cell pellet was washed 3 times with RPMI Media 1640. The final cell pellet was resuspended in 10 ml of RPMI media and transferred to 25 cm^2 plastic flasks and incubated at 37° C. in air with 5% CO2 for growth. At 48 and 72 hours, an aliquot of cells from each flask were taken and were counted for viability by trypan blue exclusion under microscope. The number of cells proliferating in each flask were determined with respect to control. FIG. 3 represents the percent survival of cells when treated with free vincristine or vincristine entrapped in liposomes.

L1210 Leukemia = test: antitumor evaluation against L1210 leukemia in mice; assay type: in vivo, CD2 F1 mice; settings: for % ILS (percentage of increase in life span) / Long Term Survivors (50 days) / Median Survival: single dose
Description: The L1210 leukemia was maintained by serial passage i.p. in DBA/2F1 female mice. For antitumor studies, 2×10^5 cells of L1210 leukemia were implanted i.p. in CD2 F1 male mice (22-25 g). […] Each drug treated group and saline treated leukemic control group was composed of eight mice. […] Data are expressed as % of ILS (percentage of increase in life span). Median life spans were calculated from grouped median survival times and % of increase in life was calculated as: [formula] Experiments were terminated on day 50. Mice alive on that day were termed "cures" and were included in the calculation of median survival time of treated mice. The saline treated or blank liposomes treated controls had the median survival of 11 days. Free vincristine at a dose of 2 mg kg^-1 provided a median survival of 14.5 days with a % ILS of 32 with 2/8 long-term survivals. […] In contrast, the doses of vincristine entrapped in liposomes provided a much higher therapeutic response in mice bearing L1210 leukemia. […] In addition, higher doses of vincristine administered in liposomes produced significant therapeutic response with majority of leukemia bearing mice surviving at day 50.
CD2 F1 mice were implanted intraperitoneally with 2 ×
10^5 leukemia cells and drug treatment was given intravenously on day

[1] = plasma pharmacokinetics of free and liposomal vincristine (radioimmunoassay); assay type: in vivo, CD2 F1 mice
Description: (§1) CD2 F1 mice were administered vincristine as a free drug at a dose of 1 mg kg^-1 and liposomal entrapped vincristine at a dose of 1 mg kg^-1 and 5 mg kg^-1 via a lateral tail vein. At sequential time points, four mice in each treatment group were sacrificed and specific tissues were isolated and assayed for drug levels by radioimmunoassay as adapted in our laboratories.

[2] = system: non-Hodgkin's and Hodgkins lymphomas, acute lymphoblastic leukemia, Wilm's tumor, rhabdomyosarcoma, and neuroblastoma; settings: in vivo; cited from earlier work
[3] = lethal toxicity in normal mice after single i.v. injection; assay type: in vivo, CD2 F1 mice
[4] = total doses in excess of 2 mg; cited from earlier work
[5] = tissue drug levels of free and liposomal vincristine (radioimmunoassay); assay type: in vivo, CD2 F1 mice; settings: for concentration at 5 min / concentration at 0.25 h / concentration at 0.5 h / concentration at 1 h / concentration at 2 h / concentration at 4 h / concentration at 8 h / concentration at 24 h: mouse, iv, 1 mg/kg; for concentration at 0.25 h: 15'; for concentration at 0.5 h: 30'
Description: as §1

[6] = brain, brain, 1.0 mg, read-out: vincristine level, brain
[7] = kidney, kidney, 1.0 mg, read-out: vincristine level, kidney
[8] = liver, liver, 1.0 mg, read-out: vincristine level, liver
[9] = lung, lung, 1.0 mg, read-out: vincristine level, lung
[10] = spleen, spleen, 1.0 mg, read-out: vincristine level, spleen

## CC[C@]1(O)C[C@H]2CN(CCc3c([nH]c4ccccc34)[C@@](C(=O)OC)(c3cc4c(cc3OC)N(C=O)[C@H]3[C@@](O)(C(=O)OC)[C@H](OC(C)=O)[C@]5(CC)C=CCN6CC[C@]43[C@@H]65)C2)C1 [free vincristine, vincristine]
L1210 Leukemia cells
  IC50: 4 ng/mL (≈ 4.85 nM)
L1210 Leukemia; 2.0 mg/kg i.v.
  % ILS (percentage of increase in life span): 32%
  Long Term Survivors (50 days): 2/8
  Median Survival: 14.5 days
L1210 Leukemia; 3 mg kg^-1 i.v.
  death of tumor bearing mice (drug toxicity): All the animals in this group were dead by day 10
L1210 Leukemia; 3.0 mg/kg i.v.
  % ILS (percentage of increase in life span): -32%
  Long Term Survivors (50 days): 0/8
  Median Survival: 7.5 days
[1]; i.v.
  apparent volume of distribution: apparent large volume of distribution
  clearance of drug from plasma: much faster clearance of drug from plasma
[1]; mouse, iv, 1 mg/kg, plasma, 1.0 mg, 5', read-out: plasma level
  concentration at 5 min: 630 ng/mL
[1]; mouse, iv, 1 mg/kg, plasma, 1.0 mg, 15', read-out: plasma level
  concentration at 0.25 h: 600 ng/mL
[1]; mouse, iv, 1 mg/kg, plasma, 1.0 mg, 30', read-out: plasma level
  concentration at 0.5 h: 200 ng/mL
[1]; mouse, iv, 1 mg/kg, plasma, 1.0 mg, 1h, read-out: plasma level
  concentration at 1 h: 100 ng/mL
[1]; mouse, iv, 1 mg/kg, plasma, 1.0 mg, 2h, read-out: plasma level
  concentration at 2 h: 50 ng/mL
[1]; mouse, plasma, iv, 1 mg kg^-1 i.v., 5 minutes, read-out: peak plasma level at 5 minutes
  Cmax at 5 min: 620 ng/mL
[2]
  antitumor activity: substantial activity
[3]; 2 mg kg^-1 i.v., to day 60
  lethality: without any lethality
[3]; mouse, in vivo, iv, 3 mg kg^-1 i.v., read-out: mice dead by day 8
  mortality at 192 h: 90%
[4]
  neurotoxicity: often associated with a progressive and disabling neurotoxicity
[5]; brain, 1 or 5 mg kg^-1 liposomal
  levels of drug in brain, free compared with liposomal vincristine: higher than liposomal vincristine
[5]; liver, 1 mg kg^-1, 8 hours
  drug level in liver: undetectable
[5]; lung, 1 mg kg^-1, different periods
  levels in lung, free compared with liposomal vincristine: comparable
[5]; [6]
  concentration at 5 min: 28 ng/g
  concentration at 0.25 h: 21 ng/g
  concentration at 0.5 h: 20 ng/g
  concentration at 1 h: 21 ng/g
  concentration at 4 h: 29 ng/g
  concentration at 8 h: 29 ng/g
  concentration at 24 h: 19 ng/g
[5]; brain, brain, 1.0 mg, 2h, read-out: vincristine level, brain
  concentration at 2 h: 21 ng/g
[5]; [7]
  concentration at 5 min: 65 ng/g
  concentration at 0.25 h: 64 ng/g
  concentration at 0.5 h: 62 ng/g
  concentration at 1 h: 47 ng/g
  concentration at 4 h: 20 ng/g
  concentration at 8 h: 18 ng/g
  concentration at 24 h: 2 ng/g
[5]; kidney, kidney, 1.0 mg, 2h, read-out: vincristine level, kidney
  concentration at 2 h: 47 ng/g
[5]; liver, liver, 1 mg kg^-1, 2 hours, read-out: drug level in liver
  concentration at 2 h: 50 ng/g
[5]; [8]
  concentration at 5 min: 200 ng/g
  concentration at 0.25 h: 161 ng/g
  concentration at 0.5 h: 121 ng/g
  concentration at 1 h: 84 ng/g
  concentration at 4 h: 10 ng/g
[5]; liver, liver, 1.0 mg, 2h, read-out: vincristine level, liver
  concentration at 2 h: 47 ng/g
[5]; [9]
  concentration at 5 min: 80 ng/g
  concentration at 0.25 h: 78 ng/g
  concentration at 0.5 h: 80 ng/g
  concentration at 1 h: 75 ng/g
  concentration at 4 h: 64 ng/g
  concentration at 8 h: 58 ng/g
  concentration at 24 h: 4 ng/g
[5]; lung, lung, 1.0 mg, 2h, read-out: vincristine level, lung
  concentration at 2 h: 77 ng/g
[5]; [10]
  concentration at 5 min: 83 ng/g
  concentration at 0.25 h: 84 ng/g
  concentration at 0.5 h: 72 ng/g
  concentration at 1 h: 86 ng/g
  concentration at 4 h: 112 ng/g
  concentration at 8 h: 61 ng/g
  concentration at 24 h: 43 ng/g
[5]; spleen, spleen, 1.0 mg, 2h, read-out: vincristine level, spleen
  concentration at 2 h: 112 ng/g
